The subject of the assay is Nematoda. Kind of assay: Nematocidal activity. In kind it is functional.

Converted amounts (≈) assume the structure as drawn.

As a reminder, the LC50 is the concentration that kills 50% of the test population. Higher therefore signals a less lethal substance.

On to `CC(=O)O[C@@H](C)C[C@@H](O)[C@@H](C)[C@@H](O)[C@@H](C)C[C@H](C)[C@@H]1OC(=O)[C@H](C)NC(=O)C[C@@H](O)C[C@H](O)[C@H](C)C[C@H]1C`, for which the LC50 was 0.5 µg/mL (≈ 0.916 µM).
In the case of `CC(=O)O[C@H](C[C@H](C)O)[C@@H](C)[C@@H](O)[C@@H](C)C[C@H](C)[C@@H]1OC(=O)[C@H](C)NC(=O)C[C@@H](O)C[C@H](O)[C@H](C)C[C@H]1C`, the LC50 came to 0.5 µg/mL (≈ 0.916 µM).
